Data from BigSolDB 2.1.

COc1cc(Cl)nc(N)n1
Conditions | solubility (mole fraction)
in 1,4-dioxane, 283.15 K | 0.0229
in 1,4-dioxane, 288.15 K | 0.0264
in 1,4-dioxane, 293.15 K | 0.0316
in 1,4-dioxane, 298.15 K | 0.0367
in 1,4-dioxane, 303.15 K | 0.0422
in 1,4-dioxane, 308.15 K | 0.0493
in 1,4-dioxane, 313.15 K | 0.0569
in 1,4-dioxane, 318.15 K | 0.0648
in 1,4-dioxane, 323.15 K | 0.0746
in DMF, 273.15 K | 0.0496
in DMF, 278.15 K | 0.0544
in DMF, 283.15 K | 0.0595
in DMF, 288.15 K | 0.0648
in DMF, 293.15 K | 0.0712
in DMF, 298.15 K | 0.0775
in DMF, 303.15 K | 0.0846
in DMF, 308.15 K | 0.0926
in DMF, 313.15 K | 0.101
in DMF, 318.15 K | 0.11
in DMF, 323.15 K | 0.12
in acetone, 273.15 K | 0.0076
in acetone, 278.15 K | 0.00947
in acetone, 283.15 K | 0.0117
in acetone, 288.15 K | 0.0143
in acetone, 293.15 K | 0.0174
in acetone, 298.15 K | 0.0211
in acetone, 303.15 K | 0.0255
in acetone, 308.15 K | 0.0302
in acetone, 313.15 K | 0.0358
in acetone, 318.15 K | 0.0422
in acetone, 323.15 K | 0.0492
in acetonitrile, 273.15 K | 0.00136
in acetonitrile, 278.15 K | 0.00174
in acetonitrile, 283.15 K | 0.00223
in acetonitrile, 288.15 K | 0.00276
in acetonitrile, 293.15 K | 0.00345
in acetonitrile, 298.15 K | 0.00426
in acetonitrile, 303.15 K | 0.00523
in acetonitrile, 308.15 K | 0.00633
in acetonitrile, 313.15 K | 0.00773
in acetonitrile, 318.15 K | 0.00927
in acetonitrile, 323.15 K | 0.0111
in chloroform, 273.15 K | 0.00237
in chloroform, 278.15 K | 0.00306
in chloroform, 283.15 K | 0.00389
in chloroform, 288.15 K | 0.00492
in chloroform, 293.15 K | 0.00612
in chloroform, 298.15 K | 0.00758
in chloroform, 303.15 K | 0.00924
in chloroform, 308.15 K | 0.0114
in chloroform, 313.15 K | 0.0138
in chloroform, 318.15 K | 0.0166
in chloroform, 323.15 K | 0.0197
in ethanol, 273.15 K | 0.00128
in ethanol, 278.15 K | 0.00163
in ethanol, 283.15 K | 0.00206
in ethanol, 288.15 K | 0.00259
in ethanol, 293.15 K | 0.00323
in ethanol, 298.15 K | 0.00396
in ethanol, 303.15 K | 0.00488
in ethanol, 308.15 K | 0.00598
in ethanol, 313.15 K | 0.00733
in ethanol, 318.15 K | 0.00886
in ethanol, 323.15 K | 0.0106
in ethyl acetate, 273.15 K | 0.00547
in ethyl acetate, 278.15 K | 0.00687
in ethyl acetate, 283.15 K | 0.00856
in ethyl acetate, 288.15 K | 0.0105
in ethyl acetate, 293.15 K | 0.0129
in ethyl acetate, 298.15 K | 0.0155
in ethyl acetate, 303.15 K | 0.0188
in ethyl acetate, 308.15 K | 0.023
in ethyl acetate, 313.15 K | 0.0276
in ethyl acetate, 318.15 K | 0.033
in ethyl acetate, 323.15 K | 0.0389
in ethylbenzene, 273.15 K | 0.000515
in ethylbenzene, 278.15 K | 0.000689
in ethylbenzene, 283.15 K | 0.000887
in ethylbenzene, 288.15 K | 0.00115
in ethylbenzene, 293.15 K | 0.0015
in ethylbenzene, 298.15 K | 0.00184
in ethylbenzene, 303.15 K | 0.00238
in ethylbenzene, 308.15 K | 0.00299
in ethylbenzene, 313.15 K | 0.00367
in ethylbenzene, 318.15 K | 0.00462
in ethylbenzene, 323.15 K | 0.00567
in isopropanol, 273.15 K | 0.00113
in isopropanol, 278.15 K | 0.00149
in isopropanol, 283.15 K | 0.0019
in isopropanol, 288.15 K | 0.00241
in isopropanol, 293.15 K | 0.00302
in isopropanol, 298.15 K | 0.00377
in isopropanol, 303.15 K | 0.0046
in isopropanol, 308.15 K | 0.00574
in isopropanol, 313.15 K | 0.00701
in isopropanol, 318.15 K | 0.00857
in isopropanol, 323.15 K | 0.0105
in methanol, 273.15 K | 0.00126
in methanol, 278.15 K | 0.00159
in methanol, 283.15 K | 0.00199
in methanol, 288.15 K | 0.00246
in methanol, 293.15 K | 0.0031
in methanol, 298.15 K | 0.00375
in methanol, 303.15 K | 0.00463
in methanol, 308.15 K | 0.00555
in methanol, 313.15 K | 0.00675
in methanol, 318.15 K | 0.00809
in methanol, 323.15 K | 0.00962
in n-propanol, 273.15 K | 0.00122
in n-propanol, 278.15 K | 0.00158
in n-propanol, 283.15 K | 0.00201
in n-propanol, 288.15 K | 0.00256
in n-propanol, 293.15 K | 0.00323
in n-propanol, 298.15 K | 0.00407
in n-propanol, 303.15 K | 0.00502
in n-propanol, 308.15 K | 0.00618
in n-propanol, 313.15 K | 0.0075
in n-propanol, 318.15 K | 0.00916
in n-propanol, 323.15 K | 0.0113
in toluene, 273.15 K | 0.000694
in toluene, 278.15 K | 0.000889
in toluene, 283.15 K | 0.00115
in toluene, 288.15 K | 0.00148
in toluene, 293.15 K | 0.0019
in toluene, 298.15 K | 0.00241
in toluene, 303.15 K | 0.003
in toluene, 308.15 K | 0.00374
in toluene, 313.15 K | 0.00463
in toluene, 318.15 K | 0.00573
in toluene, 323.15 K | 0.00703
